Where “and” joins values, the source holds several entries; their conditions need not be identical. Equal values may be shown once. Read-outs that look alike come from different tables or passages of the source.
What was measured:
[1] = format: physicochemical; settings: for Concentration of CBD-Mono-Val-Mono-HS: 37° C.
Protocol: The stability CBD and CBD analogs (CBD-Mono-VHS and CBD-Di-VHS) was evaluated under acidic and alkaline conditions to simulate exposure to gastric and intestinal fluids. The procedure is outlined as follows: • 1. Stock solution of 5 mg/mL CBD, CBD-Mono-Val-Mono HS, CBD-Di-Val-Di HS was prepared. • 2. Simulated Gastric Fluid (pH 1.2)+1% (SDS) was prepared and kept in 37° C. water bath. • 3. Physiological buffer (pH 7.4)+1% SDS was prepared and kept in 37° C. water bath. • 4. 100 μL of CBD, CBD-Mono-Val-Mono HS or CBD-Di-Val-Di-HS stock in acetonitrile (equivalent to 500 μg) was spiked into separate vials containing 5 ml of either pH 1.2 and 7.4. • 5. At each time point, 100 μL of the solution was withdrawn. • 6. 900 μL acetonitrile was added to each sample. • 7. All samples centrifuged at 4° C. and 13,000 rpm. • 8. 100 μL of the supernatant was withdrawn; to this 100 μL of supernatant, 900 μL of acetonitrile was added and placed in LC vials for analysis. Tables 9, 10 and 11, and FIGS. 7a, 7b, 18, and 19 show the results.

[2] = Plasma and organ concentrations of CBD and CBD-Mono-VHS after IP administration (Example 22); format: in vivo; settings: mice; for CBD Plasma Concentration, AVG. / Total CBD, Brain, AVG. / Total CBD, Kidney, AVG. / Total CBD, Liver, AVG. / Total CBD, Spleen, AVG. / Total CBD, Total, AVG. / CBD Plasma Concentration / Total CBD, Brain / Total CBD, Kidney / Total CBD, Liver / Total CBD, Spleen / Total CBD, Total: IP CBD-Mono-VHS; for CBD Plasma Concentration, AVG. / Total CBD, Brain, AVG. / Total CBD, Kidney, AVG. / Total CBD, Liver, AVG. / Total CBD, Spleen, AVG. / Total CBD, Total, AVG. / CBD Plasma Concentration / Total CBD, Brain / Total CBD, Kidney / Total CBD, Liver / Total CBD, Spleen / Total CBD, Total / CBD-Mono-Val-Mono-HS Plasma Concentration, AVG. / Total CBD-Mono-Val-Mono-HS, Brain, AVG. / Total CBD-Mono-Val-Mono-HS, Kidney, AVG. / Total CBD-Mono-Val-Mono-HS, Liver, AVG. / Total CBD-Mono-Val-Mono-HS, Spleen, AVG. / Total CBD-Mono-Val-Mono-HS, Total, AVG. / CBD-Mono-Val-Mono-HS Plasma Concentration / Total CBD-Mono-Val-Mono-HS, Brain / Total CBD-Mono-Val-Mono-HS, Kidney / Total CBD-Mono-Val-Mono-HS, Liver / Total CBD-Mono-Val-Mono-HS, Spleen / Total CBD-Mono-Val-Mono-HS, Total: 70 Minutes; for Total CBD, Total, AVG. / Total CBD, Total / Total CBD-Mono-Val-Mono-HS, Total, AVG. / Total CBD-Mono-Val-Mono-HS, Total: sum of the columns; for CBD Plasma Concentration / Total CBD, Brain / Total CBD, Kidney / Total CBD, Liver / Total CBD, Spleen / Total CBD, Total / CBD-Mono-Val-Mono-HS Plasma Concentration / Total CBD-Mono-Val-Mono-HS, Brain / Total CBD-Mono-Val-Mono-HS, Kidney / Total CBD-Mono-Val-Mono-HS, Liver / Total CBD-Mono-Val-Mono-HS, Spleen / Total CBD-Mono-Val-Mono-HS, Total: individual animals; for CBD-Mono-Val-Mono-HS Plasma Concentration, AVG. / Total CBD-Mono-Val-Mono-HS, Brain, AVG. / Total CBD-Mono-Val-Mono-HS, Kidney, AVG. / Total CBD-Mono-Val-Mono-HS, Liver, AVG. / Total CBD-Mono-Val-Mono-HS, Spleen, AVG. / Total CBD-Mono-Val-Mono-HS, Total, AVG. / CBD-Mono-Val-Mono-HS Plasma Concentration / Total CBD-Mono-Val-Mono-HS, Brain / Total CBD-Mono-Val-Mono-HS, Kidney / Total CBD-Mono-Val-Mono-HS, Liver / Total CBD-Mono-Val-Mono-HS, Spleen / Total CBD-Mono-Val-Mono-HS, Total: IP; for CBD-Mono-Val-Mono-HS Plasma Concentration / Total CBD-Mono-Val-Mono-HS, Brain / Total CBD-Mono-Val-Mono-HS, Kidney / Total CBD-Mono-Val-Mono-HS, Liver / Total CBD-Mono-Val-Mono-HS, Spleen / Total CBD-Mono-Val-Mono-HS, Total: listed as CBD-Mono-Val-Mono-HS
Protocol: CBD-Mono-VHS was administered intraperitoneally to mice at 2 doses (30 μg and 60 μg equivalent of CBD/mouse). Seventy minutes after dosing the animals (3 mice in each dose group), all animals were sacrificed. Blood, as well as organs (liver, spleen, kidney, and brain), were harvested for LC-MS/MS analysis of their content of both CBD and CBD-Mono-VHS.
Also shown is the concentration of CBD-Mono-VHS in the plasma 70 minutes after dosing.

[3] = In vivo eye tissue levels 90 min after topical application in Tocrisolve emulsion (Examples 12-14); parameters: species or system New Zealand albino rabbits
Protocol: Conscious male New Zealand albino rabbits were used. The formulations were applied topically into the rabbits eyes (50 μL containing the equivalent of 250 μg CBD) in Tocrisolve® emulsion formulations as described in Example 11. The animals were sacrificed 90 min. after drug application and the eye tissues harvested for analysis.
The same procedure was followed as shown under Example 12. Additional CBD analogs were tested in this example. In this example the tissue levels of both free CBD and intact analog were determined.
Formulations: Fifty microlitres of 0.5% w/v CBD in Tocrisolve emulsion (Dose: 0.25 mg)
Animal model: Conscious male new Zealand albino rabbits, Duration of the study: 90 min.
Aqueous humor, Vitreous humor, Retina-Choroid and Iris-Ciliary bodies analysed for parent compound as well as CBD.
Formulations: Fifty microlitres of 0.5% w/v Tocrisolve emulsion formulations (Dose: 0.25 mg)
Animal model: Conscious male new Zealand albino rabbits, Duration of the study: 90 min

[4] = Table 3, Set 1, rabbit eye, 90 min post topical 50 μL Tocrisolve emulsion, dose 0.25 mg CBD
[5] = Table 4, Set 2, rabbit, 90 min post topical 50 μL Tocrisolve emulsion, dose 250 μg
[6] = rabbit eye, 90 min post topical, 0.25 mg CBD

## C=C(C)C1CCC(C)=CC1c1c(O)cc(CCCCC)cc1OC(=O)[C@@H](NC(=O)CCC(=O)O)C(C)C (stereo partly drawn) [CBD-Mono-VHS, CBD-Mono-Valinate-Mono-Hemisuccinate]
[1]; Acid (pH 1.2), Time Point 0
  Concentration of CBD-Mono-Val-Mono-HS: 941 ng/mL
[1]; Acid (pH 1.2), Time Point 15
  Concentration of CBD-Mono-Val-Mono-HS: 1380 ng/mL
[1]; Acid (pH 1.2), Time Point 30
  Concentration of CBD-Mono-Val-Mono-HS: 1472 ng/mL
[1]; Acid (pH 1.2), Time Point 60
  Concentration of CBD-Mono-Val-Mono-HS: 1579 ng/mL
[1]; Acid (pH 1.2), Time Point 90
  Concentration of CBD-Mono-Val-Mono-HS: 1478 ng/mL
[1]; Acid (pH 1.2), Time Point 120
  Concentration of CBD-Mono-Val-Mono-HS: 1519 ng/mL
[1]; Base (pH 7.4), Time Point 0
  Concentration of CBD-Mono-Val-Mono-HS: 886 ng/mL
[1]; Base (pH 7.4), Time Point 15
  Concentration of CBD-Mono-Val-Mono-HS: 1439 ng/mL
[1]; Base (pH 7.4), Time Point 30
  Concentration of CBD-Mono-Val-Mono-HS: 1197 ng/mL
[1]; Base (pH 7.4), Time Point 60
  Concentration of CBD-Mono-Val-Mono-HS: 1791 ng/mL
[1]; Base (pH 7.4), Time Point 90
  Concentration of CBD-Mono-Val-Mono-HS: 1615 ng/mL
[1]; Base (pH 7.4), Time Point 120
  Concentration of CBD-Mono-Val-Mono-HS: 1731 ng/mL
[1]; pH 1.2, 37° C.
  Stability under acidic (gastric juice) conditions, in words: stable
[1]; pH 7.4, 37° C.
  Stability under physiologic / intestinal juice conditions, in words: stable
[2]; IP 30 and 60 μg, 70 minutes
  Blood brain barrier passage, in words: crosses the blood brain barrier
  Organ concentrations after IP administration, in words: high concentrations of the drug in all organs tested in a dose proportional manner
[2]; High Dose (60 μg CBD/mouse)
  CBD Plasma Concentration, AVG.: 0.00 ng/mL
  Total CBD, Brain, AVG.: 0.95 ng
  Total CBD, Kidney, AVG.: 11.15 ng
  Total CBD, Liver, AVG.: 295.11 ng
  Total CBD, Spleen, AVG.: 64.42 ng
  Total CBD, Total, AVG.: 371.63 ng
  CBD Plasma Concentration: 0.00 ng/mL
  Total CBD, Brain: 0.00 ng (2×) and 2.86 ng
  Total CBD, Kidney: 18.50 ng and 14.96 ng and 0.00 ng
  Total CBD, Liver: 319.91 ng and 195.66 ng and 369.75 ng
  Total CBD, Spleen: 93.63 ng and 99.63 ng and 0.00 ng
  Total CBD, Total: 432.04 ng and 310.25 ng and 372.61 ng
  CBD-Mono-Val-Mono-HS Plasma Concentration, AVG.: 210.45 ng/mL
  Total CBD-Mono-Val-Mono-HS, Brain, AVG.: 63.51 ng
  Total CBD-Mono-Val-Mono-HS, Kidney, AVG.: 1193.95 ng
  Total CBD-Mono-Val-Mono-HS, Liver, AVG.: 7558.89 ng
  Total CBD-Mono-Val-Mono-HS, Spleen, AVG.: 771.76 ng
  Total CBD-Mono-Val-Mono-HS, Total, AVG.: 9798.56 ng
  CBD-Mono-Val-Mono-HS Plasma Concentration: 137.82 ng/mL and 100.53 ng/mL and 393.00 ng/mL
  Total CBD-Mono-Val-Mono-HS, Brain: 46.59 ng and 42.45 ng and 101.50 ng
  Total CBD-Mono-Val-Mono-HS, Kidney: 780.57 ng and 248.34 ng and 2552.93 ng
  Total CBD-Mono-Val-Mono-HS, Liver: 8380.90 ng and 2882.40 ng and 11413.38 ng
  Total CBD-Mono-Val-Mono-HS, Spleen: 711.31 ng and 477.40 ng and 1126.58 ng
  Total CBD-Mono-Val-Mono-HS, Total: 10057.18 ng and 3751.113 ng and 15587.4 ng
[2]; Low Dose (30 μg CBD/mouse)
  CBD Plasma Concentration, AVG.: 0.00 ng/mL
  Total CBD, Brain, AVG.: 0.00 ng
  Total CBD, Kidney, AVG.: 2.343 ng
  Total CBD, Liver, AVG.: 47.62 ng
  Total CBD, Spleen, AVG.: 9.46 ng
  Total CBD, Total, AVG.: 59.42 ng
  CBD Plasma Concentration: 0.00 ng/mL
  Total CBD, Brain: 0.00 ng
  Total CBD, Kidney: 7.03 ng and 0.00 ng (2×)
  Total CBD, Liver: 41.82 ng and 19.61 ng and 81.42 ng
  Total CBD, Spleen: 10.04 ng and 18.35 ng and 0.00 ng
  Total CBD, Total: 58.89 ng and 37.96 ng and 81.42 ng
  CBD-Mono-Val-Mono-HS Plasma Concentration, AVG.: 29.10 ng/mL
  Total CBD-Mono-Val-Mono-HS, Brain, AVG.: 9.18 ng
  Total CBD-Mono-Val-Mono-HS, Kidney, AVG.: 101.58 ng
  Total CBD-Mono-Val-Mono-HS, Liver, AVG.: 1170.01 ng
  Total CBD-Mono-Val-Mono-HS, Spleen, AVG.: 179.54 ng
  Total CBD-Mono-Val-Mono-HS, Total, AVG.: 1489.42 ng
  CBD-Mono-Val-Mono-HS Plasma Concentration: 32.08 ng/mL and 32.24 ng/mL and 22.97 ng/mL
  Total CBD-Mono-Val-Mono-HS, Brain: 13.48 ng and 8.26 ng and 5.81 ng
  Total CBD-Mono-Val-Mono-HS, Kidney: 88.05 ng and 84.14 ng and 132.55 ng
  Total CBD-Mono-Val-Mono-HS, Liver: 1431.98 ng and 534.11 ng and 1543.96 ng
  Total CBD-Mono-Val-Mono-HS, Spleen: 105.24 ng and 283.02 ng and 150.36 ng
  Total CBD-Mono-Val-Mono-HS, Total: 1670.831 ng and 941.765 ng and 1855.656 ng
[3]; [4]
  Analog Conc., AQ Humor: 90.3 ± 13.6 ng/g of tissue
  Analog Conc., Iris Ciliary Bodies: 1034 ± 87.4 ng/g of tissue
  Analog Conc., Retina Choroid: 689 ± 127 ng/g of tissue
  CBD Conc., Iris Ciliary Bodies: 353 ± 43^ ng/g of tissue
  CBD Conc., Retina Choroid: 194 ± 31.2 ng/g of tissue
[3]; [5]
  Analog Concentration, Aqueous Humor: 98.7 ± 19.8 ng/g of tissue
  Analog Concentration, Iris Ciliary Bodies: 422 ± 197 ng/g of tissue
  Analog Concentration, Retina Choroid: 519 ± 476 ng/g of tissue
  CBD concentration, Aqueous Humor: 61.3 ± 5.9 ng/g of tissue
  CBD concentration, Iris Ciliary Bodies: 585 ± 103 ng/g of tissue
  CBD concentration, Retina Choroid: 503 ± 373 ng/g of tissue
[3]; [6]
  Ocular tissue levels of free CBD, in words (Example 13): high levels of Free CBD in the retina choroid and iris-ciliary bodies
  Ocular tissue levels of the applied substance, in words (Example 13): detected in high concentration in the aqueous humor, retina choroid and iris-ciliary bodies
[3]; rabbit eye, topical Tocrisolve emulsion
  Penetration into the ocular tissues, in words (Example 14): superior analog for penetration into the different tissues of the eye
